# Key:
# Human FAP Protein = biological target: T1, Human FAP Protein (Homo sapiens, UniProt Q12884); experiment: Surface plasmon resonance, multi-cycle mode; format: binding; conditions: SPR multi-cycle
# T1 construct: His; purchased Novoprotein (China)
# T1 sequence (Q12884 1-760): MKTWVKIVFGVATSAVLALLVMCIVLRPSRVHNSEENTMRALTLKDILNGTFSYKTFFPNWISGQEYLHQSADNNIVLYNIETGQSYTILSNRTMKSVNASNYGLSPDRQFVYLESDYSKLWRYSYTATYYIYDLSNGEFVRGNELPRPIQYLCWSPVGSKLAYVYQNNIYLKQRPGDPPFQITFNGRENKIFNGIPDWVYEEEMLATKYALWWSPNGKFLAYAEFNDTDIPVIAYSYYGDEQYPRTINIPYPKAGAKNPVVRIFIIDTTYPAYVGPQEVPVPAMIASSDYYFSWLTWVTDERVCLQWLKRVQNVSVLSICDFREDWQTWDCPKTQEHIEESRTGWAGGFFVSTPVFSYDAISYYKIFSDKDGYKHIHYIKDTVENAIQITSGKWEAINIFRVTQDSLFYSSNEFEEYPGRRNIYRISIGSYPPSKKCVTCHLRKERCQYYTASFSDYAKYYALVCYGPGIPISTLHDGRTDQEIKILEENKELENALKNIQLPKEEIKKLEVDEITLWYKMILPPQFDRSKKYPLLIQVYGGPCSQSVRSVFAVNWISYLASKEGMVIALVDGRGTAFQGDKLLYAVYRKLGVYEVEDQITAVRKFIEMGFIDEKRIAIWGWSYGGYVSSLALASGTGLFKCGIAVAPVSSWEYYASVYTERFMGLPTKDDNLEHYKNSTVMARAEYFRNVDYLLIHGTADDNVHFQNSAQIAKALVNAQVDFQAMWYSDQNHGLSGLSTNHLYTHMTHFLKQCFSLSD
# Method: According to US Pharmacopeia USP43 IMMUNOLOGICAL TEST METHODS-SURFACE PLASMON RESONANCE<1105> and Chinese Pharmacopoeia 2020, Volume IV, Surface plasmon resonance method, Label-free Immunochemistry (IV), 3429 Immunochemistry, General Rule, a surface plasmon resonance experiment was carried out.
# A surface plasma chromatograph from Cytiva was used for measurement. Before protein injection, 400 mM condensing agent 1-ethyl-(3-dimethylaminopropyl)carbodiimide hydrochloride and 100 mM N-hydroxysuccinimide were mixed, and a CM5 sensor chip was activated with this mixture for 420 seconds at a flow rate of 10 μL/min. 50 μg/mL protein was then injected into an Fc2 sample channel at a flow rate of 10 μL/min to achieve a protein immobilization level of about 8000-15000 RU. In the control group, no protein was injected. Subsequently, the unreacted chip was blocked with 1M ethanolamine hydrochloride-NaOH at a flow rate of 10 μL/min for 420 seconds.
# Different gradient solutions were injected into channels Fc1-Fc2 at a flow rate of 30 μL/min, followed by a 60-second binding phase and a 90-second dissociation phase, and data were collected.
# HT-1080-FAP tumor = experiment: PET/CT imaging in HT-1080-FAP tumor-bearing mouse model; format: in vivo; conditions: ^68Ga label, 18.5 MBq via tail vein, p<0.005
# Method: Mouse model: Nu/Nu mice (SPF grade) were purchased from Beijing Charles River Laboratories (China) and injected subcutaneously with HT-1080-FAP cells to construct a tumor model with high FAP expression.
# All PET/CT scans were carried out on Mediso nanoScan® PET 122S small animal PET/CT.
# After a certain number of HT-1080-FAP tumor mice were taken and injected via the tail vein with 7.4-18.5 MBq of ^68Ga/^86Y-FAPI-04 (control) and ^68Ga/^86Y-FAPI-CB series molecules at specified time points (Note: the injection of the control and investigation molecules was separated apart by at least five half-lives of the nuclide to ensure that the radioactivity of the previous probe had almost completely decayed and was essentially completely metabolized), imaging was carried out at specified time points. In some examples, the mice were anesthetized and then sacrificed by neck breaking at a certain time point. Organs were dissected and taken for radioactivity measurement.
# A ^68Ge-^68Ga generator was eluted with 5 mL of 0.6 M high-purity hydrochloric acid to obtain a Ga-68 hydrochloric acid solution. 1 mL of the Ga-68 solution after elution was taken, and 100 μL of 3 M sodium hydroxide and 130 μL of 3M sodium acetate were added to adjust the acidity to a final pH of 4.0. 12 μg of FAPI-CB-00 compound was added, and the reaction mixture was heated to 70° C. and maintained for 20 min. […]
smiles,measurement,setting,value
N#C[C@@H]1CC(F)(F)CN1C(=O)CNC(=O)c1ccnc2ccc(OCCCN3CCN(C(=O)[C@H](CCCCNC(=O)c4ccc(OS(=O)(=O)F)cc4)NC(=O)CN4CCN(CC(=O)O)CCN(CC(=O)O)CCN(CC(=O)O)CC4)CC3)cc12 [FAPI-CB-01],affinity compared with FAPI-04,Human FAP Protein,improved by approximately two orders of magnitude
same,binding rate compared with FAPI-04,Human FAP Protein,significantly increased
same,dissociation rate compared with FAPI-04,Human FAP Protein,decreased
same,Kd,Human FAP Protein; 1:1 binding model,4.62 pM
same,Rmax (maximum theoretical analyte binding capacity),Human FAP Protein; 1:1 binding model,29.3 RU
same,kd,Human FAP Protein; 1:1 binding model,4.79e-05 s⁻¹
same,kon,"Human FAP Protein; 1:1 binding model, read-out: ka",1.04e+07 M⁻¹ s⁻¹
same,improvement of maximum standard tumor uptake value (SUVmax) compared with FAPI-04,HT-1080-FAP tumor,about 2 times

# Source: patent publication US20260137820A1, “TRIFUNCTIONAL COMPOUND AND USE THEREOF” (PEKING UNIVERSITY, priority 2022, published 2026)
